Assay results reported in patent publication US11805798B2, “Process for increasing the stability of a composition comprising polyunsaturated omega-3 fatty acids” (Evonik Operations GmbH, priority 2014, dated 2023).
Where “and” joins values, the source holds several entries; their conditions need not be identical. Equal values may be shown once.

Assays:
Assay type in all cases: physicochemical
[1] = Oligomer content by gel-chromatography (GPC), RI-detector; stability on storage
Experimental: Oligomeric PUFA constituents as well as their derivatives (collectively referred to as oligomer content) were quantified by gel-chromatographic means (GPC, styroldivinylbenzene-phase with tetrahydrofuran containing trifluoroacetic acid used as eluent). A refractive index (RI) detector was used for detection. Due to the fact that specific response factors of the constituents of the samples wore unknown, proportions were calculated based upon fractional proportions of the total area of chromatograms.
(§1) About 50 g each of the liquid ethyl esters EPA-OEt and DHA-OEt used in experiments 1 and 2 as well as of the liquid fatty acids EPA and DHA obtained in experiments 1 and 2 were filled into 250 ml Schott Duran bottles with an inner diameter of about 60 mm (filling height about 20 mm). About 50 g each of the solid lysine-salts EPA-Lys and DHA-Lys obtained in experiments 3 and 4 were filled into 250 ml polyethylene wide-neck bottles (55 mm*55 mm*80 mm) (filling height about 60 mm-70 mm).
(§2) All of the bottles were placed together with opened lids in a drying oven with an opened ventilation valve at 50° C. and stored under these conditions for 26 days. Results of the analyses performed subsequently as well as the results obtained for the sodium-salts which were stored at room temperature (cf. experiments 5 and 6) are summarized in the following table (Table 1).

[2] = Anisidine Value (AV), secondary oxidation products, Ph. Eur. 2.5.36; stability on storage
Experimental: An exemplary procedure for determining the Anisidine Value (AV) of a sample is performed as follows
The anisidine value is defined as 100 times the optical density measured in a 1 cm cell of a solution containing 1 g of the substance to be examined in 100 ml of a mixture of solvents and reagents according to the following method carry out the operations as rapidly as possible avoiding exposure to actinic light.
Test solution (a); Dissolve 0.500 g of the substance to be examined in trimethylpentane and dilute to 25.0 ml with the same solvent.
Test solution (b): To 5.0 ml of test solution (a) add 1.0 ml of a 2.5 g/t solution of p-anisidine in glacial acetic acid, shake and store protected from light.
Reference solution: To 5.0 ml of trimethylpentane add 1.0 ml of a 2.5 g/l solution of p-anisidine in glacial acetic acid, shake and store protected from light. Measure the absorbance of test solution (a) at the maximum at 350 nm using trimethylpentane as the compensation liquid. Measure the absorbance of test solution (b) at 350 nm exactly 10 min after its preparation, using the reference solution as the compensation liquid. Calculate the anisidine value (AV) from the expression. AV=(25*(1.2*A1−A2)/m • A1=absorbance of test solution (b) at 350 nm, • A2=absorbance of test solution (a) at 350 nm, • m=mass of the substance to be examined in test solution (a), in grams.
(§3) Primary oxidation products (hydroperoxides at double bonds) were quantified by determining the Peroxide Value (PV) according to Ph. Eur 2.5.5 (01/2008.20505). Secondary oxidation products (carbonyl compounds) were quantified by determining the Anisidine Value (AV) according to Ph, Eur. 2.5.36 (01/2008:20536).
as §1, §2

[3] = Peroxide Value (PV), primary oxidation products, Ph. Eur. 2.5.5; stability on storage
Experimental: An exemplary procedure for determining the Peroxide Value (PV) of a sample is performed as follows:
Reagents and solution: • 1. Acetic Acid—chloroform solution (7.2 ml Acetic Acid and 4.8 ml Chloroform). • 2. Saturated Potassium Iodide solution. Store in the dark. • 3. Sodium thiosulfate solution, 0.1N. Commercially available • 4. 1% Starch solution. Commercially available. • 5. Distilled or deionized water.
Conduct a blank determination of the reagents • 1. Weigh 2.00 (±0.02) g of sample into a 100 ml glass stoppered Erlenmeyer flask. Record weight to the nearest 0.01 g. • 2. By graduated cylinder, odd 12 ml of the acetic acid chloroform solution. • 3. Swirl the flask until the sample is completely dissolved (careful warming on a hot plate may be necessary). • 4. Using 1 ml Mohr pipette, add 0.2 ml of saturated potassium iodide solution • 5. Stopper the flask and swirl the contents of the flask for exactly one minute. • 6. Immediately add by graduated cylinder, 12 ml of either distilled or deionized water, stopper and stake vigorously to liberate the iodine from the chloroform layer. • 7. Fill the burette with 0.1 N sodium thiosulfate. • 8. If the starting color of the solution is deep red orange, titrate slowly with mixing until the color lightens. If the solution is initially a light amber color, go to step 9. • 9. Using a dispensing device: add 1 ml of starch solution as indicator. • 10. Titrate until the blue gray color disappears in the aqueous (upper layer). • 11. Accurately record the mis of titrant used to two decimal places.
Calculation: • S=titration of sample • B=titration of blank • Peroxide value=(S−B)*N thiosulfate*1000/weight of sample
as §3, §1, §2

[4] = Appearance after storage at room temperature; conditions: after storage for 3 months at room temperature; initially faintly beige powder
Experimental: The homogenous solution obtained was spray dried with a Büchi B190 laboratory-spray drier with an inlet temperature of 140° C. and an outlet temperature of about 80° C. 28.6 g of a faintly beige powder were obtained.
The homogenous solution obtained was spray dried with a Büchi B190 laboratory-spray drier writ an inlet temperature of 140° C. and an outlet temperature of about 80° C. 27.5 g of a faintly beige powder were obtained. […] Oligomer content was determined as 3.4 area-% (gel-chromatography. RI-detector).

[5] = t = 26 days, open bottles exposed to air, drying oven at 50° C.
[6] = after 3 months at room temperature

Compound | Oligomer content ([1]; t = 0, before storage) [area-%] | Oligomer content [1, 5] [area-%] | Anisidine Value (AV) ([2]; t = 0, before storage) [A/g] | Anisidine Value (AV) [2, 5] [A/g] | Peroxide Value (PV) ([3]; t = 0, before storage) [mmol/kg] | Peroxide Value (PV) [3, 5] [mmol/kg] | Appearance after storage [4] | Oligomer content [1, 6] | Anisidine Value (AV) [2, 6] | Peroxide Value (PV) [3, 6]
CC/C=C\C/C=C\C/C=C\C/C=C\C/C=C\C/C=C\CCC(=O)OCC [DHA-OEt, docosahexaenoic acid ethyl ester] | 0.4 | 32.6 | 16.0 | 1732 | 26.1 | 282.0 |  |  |  | 
CC/C=C\C/C=C\C/C=C\C/C=C\C/C=C\CCCC(=O)O [EPA-OH, all-cis-5,8,11,14,17-eicosapentaenoic acid] |  | 20.6 | 3.1 | 424 | 8.6 | 14.7 |  |  |  | 
Docosahexaenoic Acid-L-Lysine Salt [DHA-Lys] |  | 0.9 | 3.1 | <1.0 | 1.7 | <1.0 |  |  |  | 
Docosahexaenoic Acid-Sodium Salt [DHA-Na] |  |  |  |  |  |  | grey-coloured appearance | 3.4 area-% and 3.4 ** area-% | 77.9 A/g and 77.9 ** A/g | 6.9 mmol/kg and 6.9 ** mmol/kg
Eicosapentaenoic Acid-L-Lysine [EPA-Lys] |  | 0.6 | 2.1 | <1.0 | 1.3 | <1.0 |  |  |  | 
Eicosapentaenoic Acid-Sodium Salt [EPA-Na] |  |  |  |  |  |  | grey-coloured appearance | 2.4 area-% and 2.4 ** area-% | 41.1 A/g and 41.1 ** A/g | 5.0 mmol/kg and 5.0 ** mmol/kg
